Measured values: ChEMBL document CHEMBL1125506, “Fluoronaphthyridines as antibacterial agents. 6. Synthesis and structure-activity relationships of new chiral 7-(1-, 3-, 4-, and 6-methyl-2,5-diazabicyclo[2.2.1]heptan-2-yl)naphthyridine analogues of 7-[(1R,4R)-2,5- diazabicyclo[2.2.1]heptan-2-yl]-1-(1,1-dimethylethyl)-6-fluoro-1,4-dihy …” (J Med Chem, 1992)
Converted amounts (≈) assume the structure as drawn.

Legend:
Enterococcus faecalis = experiment: In vitro antibacterial activity against Enterococcus faecalis A9809; type: functional
Klebsiella pneumoniae = experiment: In vitro antibacterial activity against Klebsiella pneumoniae A9664; type: functional
Morganella morganii = experiment: In vitro antibacterial activity against Morganella morganii A15153; type: functional
Bacteroides fragilis = experiment: In vitro antibacterial activity against Bacteroides fragilis A-22,862; type: functional
Escherichia coli = experiment: In vitro antibacterial activity against Escherichia coli A15119; type: functional
Streptococcus pneumoniae = experiment: In vitro antibacterial activity against Streptococcus pneumoniae A9585.; type: functional
Proteus mirabilis = experiment: In vitro antibacterial activity against Proteus mirabilis A9900; type: functional
[1] = Solubility (water, 22C, pH 7.2); type: physicochemical; conditions: read-out: S
Staphylococcus aureus = experiment: In vitro antibacterial activity against Staphylococcus aureus A9537; type: functional
Enterobacter cloacae = experiment: In vitro antibacterial activity against Enterobacter cloacae A9656; type: functional
Pseudomonas aeruginosa = experiment: In vitro antibacterial activity against Pseudomonas aeruginosa A9843; type: functional
[2] = Partition coefficient (logD); type: physicochemical; conditions: octanol/water
Serratia marcescens = experiment: In vitro antibacterial activity against Serratia marcescens A20019; type: functional
Mus musculus [3] = experiment: In vivo efficacy on systemic infections caused by Pseudomonas aeruginosa A9843 in mice after intramuscular administration; type: functional; conditions: im, read-out: PD50
[4] = Percent urinary recovery in 24 hr after peroral administration to mice; type: ADME, organism-based; conditions: mouse, urine, po; read-out: UR
Mus musculus [5] = experiment: In vivo efficacy on systemic infections caused by Pseudomonas aeruginosa A9843 in mice after peroral administration; type: functional; conditions: po, read-out: PD50
[6] = Peak concentration in blood after intravenous administration to mice; type: ADME, organism-based; set-up: route intravenous; conditions: mouse
Mus musculus [7] = experiment: In vivo efficacy on systemic infections caused by Escherichia coli A15119 in mice after intramuscular administration; type: functional; conditions: im, read-out: PD50
[8] = Peak concentration in blood after peroral administration to mice; type: ADME, organism-based; set-up: route oral; conditions: mouse, po
[9] = percent urinary recovery in 24 hr after intravenous administration to mice; type: ADME, organism-based; conditions: mouse, urine, read-out: UR
[10] = Plasma half-life after intravenous administration to mice; type: ADME, organism-based; conditions: mouse
Mus musculus [11] = experiment: Area under curve measured as conc vs time after peroral administration to mice.; type: ADME, organism-based; set-up: unit not given here; conditions: in vivo, po
Mus musculus [12] = experiment: In vivo efficacy on systemic infections caused by Staphylococcus aureus A15090 in mice after intramuscular administration; type: functional; conditions: im, read-out: PD50
Mus musculus [13] = experiment: In vivo efficacy on systemic infections caused by Streptococcus pneumoniae A9585 in mice after peroral administration; type: functional; conditions: po, read-out: PD50
Mus musculus [14] = experiment: In vivo efficacy on systemic infections caused by Streptococcus pneumoniae A9585 in mice after intramuscular administration; type: functional; conditions: im, read-out: PD50
Mus musculus [15] = experiment: In vivo efficacy on systemic infections caused by Staphylococcus aureus A15090 in mice after peroral administration; type: functional; conditions: po, read-out: PD50
Mus musculus [16] = experiment: Area under curve measured as conc vs time after intravenous administration to mice.; type: ADME, organism-based; set-up: unit not given here; conditions: in vivo
[17] = Plasma half-life after peroral administration to mice; type: ADME, organism-based; conditions: mouse, po
[18] = Acute toxicity after peroral administration to mice; type: organism-based; conditions: mouse, in vivo, po
[19] = Acute toxicity after intravenous administration to mice; type: organism-based; conditions: mouse, in vivo
Mus musculus [20] = experiment: In vivo efficacy on systemic infections caused by Escherichia coli A15119 in mice after peroral administration; type: functional; conditions: po, read-out: PD50

Structure (SMILES) | MIC (Enterococcus faecalis) [µg/mL] | MIC (Klebsiella pneumoniae) [µg/mL] | MIC (Morganella morganii) [µg/mL] | MIC (Bacteroides fragilis) [µg/mL] | MIC (Escherichia coli) [µg/mL] | MIC (Streptococcus pneumoniae) [µg/mL] | MIC (Proteus mirabilis) [µg/mL] | solubility [1] [µg/mL] | MIC (Staphylococcus aureus) [µg/mL] | MIC (Enterobacter cloacae) [µg/mL] | MIC (Pseudomonas aeruginosa) [µg/mL] | logD [2] | MIC (Serratia marcescens) [µg/mL] | dose excreted at 24 h [4] [%] | ED50 (Mus musculus [5]) [mg/kg] | Cmax [6] [ng/mL] | Cmax [8] [ng/mL] | dose excreted at 24 h [9] [%] | half-life [10] [h] | ED50 (Mus musculus [15]) [mg/kg] | other results
Cc1c(F)c(N2C[C@H]3C[C@@H]2[C@@H](C)N3)nc2c1c(=O)c(C(=O)O)cn2C1CC1.Cl | 0.25 | 0.06 | 0.25 | 8 | 0.016 | 0.13 | 0.25 | 150 | 0.016 | 0.06 | 1 | 0.71 | 0.5 |  |  |  |  |  |  |  | 
Cc1c(F)c(N2C[C@H]3C[C@@H]2[C@H](C)N3)nc2c1c(=O)c(C(=O)O)cn2C1CC1.Cl | 0.13 | 0.016 | 0.06 | 2 | 0.004 | 0.06 | 0.06 | 6 | 0.016 | 0.016 | 0.13 | 0.71 | 0.13 | 18 | 0.34 | 12000 | 6000 | 16 | 4.8 | 1.8 | ED50 (Mus musculus [3]): 0.78 mg/kg; ED50 (Mus musculus [7]): 0.1 mg/kg; AUC (Mus musculus [11]): 41; ED50 (Mus musculus [12]): 0.34 mg/kg; ED50 (Mus musculus [13]): 18.9 mg/kg; ED50 (Mus musculus [14]): 18.9 mg/kg; AUC (Mus musculus [16]): 59; half-life [17]: 4.2 h
Cc1c(F)c(N2[C@H]3CN[C@H](C3)[C@H]2C)nc2c1c(=O)c(C(=O)O)cn2C1CC1.Cl | 0.025 | 0.06 | 0.25 | 8 | 0.016 | 0.25 | 0.5 | 220 | 0.03 | 0.06 | 2 | 1 | 0.5 |  |  |  |  |  |  |  | 
C[C@H]1N[C@@H]2C[C@H]1N(c1nc3c(cc1F)c(=O)c(C(=O)O)cn3C(C)(C)C)C2.Cl | 1 | 0.5 | 1 | 4 | 0.03 | 0.5 | 0.5 | 6340 | 0.06 | 0.06 | 2 | -0.12 | 0.25 | 17 | 9.5 | 23000 | 11000 | 18 | 0.75 | 16.5 | ED50 (Mus musculus [3]): 12.5 mg/kg; AUC (Mus musculus [11]): 8; AUC (Mus musculus [16]): 18; half-life [17]: 0.733 h
C[C@@H]1N[C@@H]2C[C@H]1N(c1nc3c(cc1F)c(=O)c(C(=O)O)cn3C(C)(C)C)C2.Cl | 0.25 | 0.03 | 0.13 | 2 | 0.008 | 0.25 | 0.13 | 25 | 0.03 | 0.03 | 0.5 | 0.1 | 0.13 | 18 | 2.7 | 22000 | 9000 | 16 | 1.22 | 1.6 | ED50 (Mus musculus [3]): 1.6 mg/kg; AUC (Mus musculus [11]): 41; ED50 (Mus musculus [12]): 0.9 mg/kg; LD50 [18]: > 2500 mg/kg; ED50 (Mus musculus [13]): 25 mg/kg; ED50 (Mus musculus [14]): 14.4 mg/kg; AUC (Mus musculus [16]): 22; half-life [17]: 2.63 h; LD50 [19]: 263 mg/kg
Cc1c(F)c(N2C[C@H]3C[C@@H]2CN3)nc2c1c(=O)c(C(=O)O)cn2C1CC1 | 0.06 (≈ 0.167 µM) | 0.008 (≈ 0.0223 µM) | 0.03 (≈ 0.0837 µM) | 1 (≈ 2.79 µM) | 0.02 (≈ 0.0558 µM) | 0.06 (≈ 0.167 µM) | 0.03 (≈ 0.0837 µM) | 20 (≈ 55.8 µM) | 0.016 (≈ 0.0446 µM) | 0.002 (≈ 0.00558 µM) | 0.006 (≈ 0.0167 µM) | 0.48 | 0.006 (≈ 0.0167 µM) | 34 | 2.7 | 19000 | 9000 | 41 | 1.5 | 5.4 | ED50 (Mus musculus [7]): 0.2 mg/kg; AUC (Mus musculus [11]): 26; ED50 (Mus musculus [12]): 2.4 mg/kg; ED50 (Mus musculus [20]): 0.9 mg/kg; LD50 [18]: 1750 mg/kg; ED50 (Mus musculus [13]): 43.5 mg/kg; ED50 (Mus musculus [14]): > 25 mg/kg; AUC (Mus musculus [16]): 40; half-life [17]: 1.28 h; LD50 [19]: 125 mg/kg
CC(C)(C)n1cc(C(=O)O)c(=O)c2cc(F)c(N3C[C@H]4C[C@@H]3CN4)nc21 | 0.13 (≈ 0.361 µM) | 0.016 (≈ 0.0444 µM) | 0.03 (≈ 0.0832 µM) | 0.5 (≈ 1.39 µM) | 0.008 (≈ 0.0222 µM) | 0.13 (≈ 0.361 µM) | 0.06 (≈ 0.166 µM) | 80 (≈ 222 µM) | 0.03 (≈ 0.0832 µM) | 0.016 (≈ 0.0444 µM) | 0.25 (≈ 0.694 µM) | -0.41 | 0.06 (≈ 0.166 µM) | 34 | 4.7 | 20000 | 10000 | 30 | 1.22 | 1.6 | ED50 (Mus musculus [3]): 1.4 mg/kg; ED50 (Mus musculus [7]): 0.5 mg/kg; ED50 (Mus musculus [12]): 0.9 mg/kg; LD50 [18]: 5000 mg/kg; ED50 (Mus musculus [13]): 28 mg/kg; ED50 (Mus musculus [14]): 18.9 mg/kg; half-life [17]: 1.6 h; LD50 [19]: 303 mg/kg
